# Measurements published in patent publication US8802597B2, “Herbicidal pyrimidines” (E I du Pont de Nemours and Company, priority 2003, dated 2014).
# Where two headings read alike, the source gives them in different places.
# Legend:
# Format in all cases: in vivo
# [1] = tested on: Surinam grass (Brachiaria decumbens); test: Test B pre/postemergence; conditions: Urochloa decumbens; for pest or weed control at 125 g/ha: 125 g ai/ha; for pest or weed control at 500 g/ha: 500 g ai/ha
# Summary of the method: (§1)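 Visual injury scored 0 (no effect) to 100 (complete control) versus untreated controls after 13 to 15 days in greenhouse. Treatments were pre- or postemergence sprays of surfactant-containing solvent formulations; postemergence plants at 1- to 4-leaf stage, 2 to 18 cm.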
# [2] = tested on: barnyardgrass (Echinochloa crus-galli); test: Test B pre/postemergence; conditions: Echinochloa crus-galli; for pest or weed control at 125 g/ha: 125 g ai/ha; for pest or weed control at 500 g/ha: 500 g ai/ha
# Summary of the method: as §1
# [3] = tested on: cocklebur (Xanthium strumarium); test: Test B pre/postemergence; conditions: Xanthium strumarium; for pest or weed control at 125 g/ha: 125 g ai/ha; for pest or weed control at 500 g/ha: 500 g ai/ha
# Summary of the method: as §1
# [4] = tested on: corn (Zea mays); test: Test B pre/postemergence; conditions: Zea mays
# Summary of the method: as §1
# [5] = tested on: crabgrass (Digitaria sanguinalis); test: Test B pre/postemergence; conditions: Digitaria sanguinalis; for pest or weed control at 125 g/ha: 125 g ai/ha; for pest or weed control at 500 g/ha: 500 g ai/ha
# Summary of the method: as §1
# [6] = tested on: giant foxtail (Setaria faberii); test: Test B pre/postemergence; conditions: Setaria faberi; for pest or weed control at 125 g/ha: 125 g ai/ha; for pest or weed control at 500 g/ha: 500 g ai/ha
# Summary of the method: as §1
# [7] = tested on: lambsquarters (Chenopodium album); test: Test B pre/postemergence; conditions: Chenopodium album; for pest or weed control at 125 g/ha: 125 g ai/ha; for pest or weed control at 500 g/ha: 500 g ai/ha
# Summary of the method: as §1
# [8] = tested on: morningglory (Ipomoea coccinea); test: Test B pre/postemergence; conditions: Ipomoea; for pest or weed control at 125 g/ha: 125 g ai/ha; for pest or weed control at 500 g/ha: 500 g ai/ha
# Summary of the method: as §1
# [9] = tested on: pigweed (Amaranthus retroflexus); test: Test B pre/postemergence; conditions: Amaranthus retroflexus; for pest or weed control at 125 g/ha: 125 g ai/ha; for pest or weed control at 500 g/ha: 500 g ai/ha
# Summary of the method: as §1
# [10] = tested on: velvetleaf (Abutilon theophrasti); test: Test B pre/postemergence; conditions: Abutilon theophrasti; for pest or weed control at 125 g/ha: 125 g ai/ha; for pest or weed control at 500 g/ha: 500 g ai/ha
# Summary of the method: as §1
# [11] = tested on: wheat (Triticum aestivum); test: Test B pre/postemergence; conditions: Triticum aestivum; for plant injury at 125 g/ha: 125 g ai/ha; for plant injury at 500 g/ha: 500 g ai/ha
# Summary of the method: as §1
# [12] = tested on: blackgrass (Alopecurus myosuroides); test: Test B postemergence; conditions: Alopecurus myosuroides, post-emergence
# Summary of the method: as §1
# [13] = tested on: wild oat (Avena fatua); test: Test B postemergence; conditions: Avena fatua, post-emergence
# Summary of the method: as §1
# [14] = tested on: barnyardgrass (Echinochloa crus-galli); test: Test B flooded paddy test; conditions: Echinochloa crus-galli, Flood, 1000 g ai/ha; scale 0 (no effect) to 100 (complete control); read-out: Plant response rating, Barnyardgrass
# Summary of the method: (§2)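 Visual injury scoring (0 = no effect, 100 = complete control) versus controls made 13 to 15 days after treatment in the greenhouse. Test species were grown in flooded paddy to the 2-leaf stage: rice, barnyardgrass, umbrella sedge, duck salad.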
# [15] = tested on: duck salad (Heteranthera limosa); test: Test B flooded paddy test; conditions: Heteranthera limosa, Flood, 1000 g ai/ha; scale 0 to 100; read-out: Plant response rating, Ducksalad
# Summary of the method: as §2
# [16] = tested on: rice (Oryza sativa); test: Test B flooded paddy test; conditions: Oryza sativa, Flood, 1000 g ai/ha; scale 0 to 100; read-out: Plant response rating, Rice
# Summary of the method: as §2
# [17] = tested on: umbrella sedge (Cyperus difformis); test: Test B flooded paddy test; conditions: Cyperus difformis, Flood, 1000 g ai/ha; scale 0 to 100; read-out: Plant response rating, Sedge, Umbrella
# Summary of the method: as §2
structure (smiles),measurement,setting,value
COC(=O)c1nc(C2CC2)nc(N)c1F [Compound 25],pest or weed control at 125 g/ha,"[1]; post-emergence, Postemergence, scale 0 to 100 (0 no effect, 100 complete control), read-out: Surinam Grass plant response rating",50%
same,pest or weed control at 500 g/ha,"[1]; post-emergence, Postemergence, scale 0 to 100, read-out: Plant response rating, Surinam Grass",70%
same,pest or weed control at 125 g/ha,"[1]; pre-emergence, Preemergence, scale 0 to 100 (0 no effect, 100 complete control), read-out: Plant response rating, Surinam Grass",20%
same,pest or weed control at 500 g/ha,"[1]; pre-emergence, Preemergence, scale 0 to 100 (0 no effect, 100 complete control), read-out: Surinam Grass plant response rating",70%
same,pest or weed control at 125 g/ha,"[2]; post-emergence, Postemergence, scale 0 to 100 (0 no effect, 100 complete control), read-out: Barnyardgrass plant response rating",40%
same,pest or weed control at 500 g/ha,"[2]; post-emergence, Postemergence, scale 0 to 100, read-out: Plant response rating, Barnyardgrass",80%
same,pest or weed control at 125 g/ha,"[2]; pre-emergence, Preemergence, scale 0 to 100 (0 no effect, 100 complete control), read-out: Plant response rating, Barnyardgrass",20%
same,pest or weed control at 500 g/ha,"[2]; pre-emergence, Preemergence, scale 0 to 100 (0 no effect, 100 complete control), read-out: Barnyardgrass plant response rating",60%
same,pest or weed control at 125 g/ha,"[3]; post-emergence, Postemergence, scale 0 to 100 (0 no effect, 100 complete control), read-out: Cocklebur plant response rating",90%
same,pest or weed control at 500 g/ha,"[3]; post-emergence, Postemergence, scale 0 to 100, read-out: Plant response rating, Cocklebur",90%
same,pest or weed control at 125 g/ha,"[3]; pre-emergence, Preemergence, scale 0 to 100 (0 no effect, 100 complete control), read-out: Plant response rating, Cocklebur",80%
same,pest or weed control at 500 g/ha,"[3]; pre-emergence, Preemergence, scale 0 to 100 (0 no effect, 100 complete control), read-out: Cocklebur plant response rating",90%
same,plant injury at 125 g/ha,"[4]; post-emergence, Postemergence, 125 g ai/ha, scale 0 to 100 (0 no effect, 100 complete control), read-out: Corn plant response rating",0%
same,"Corn plant response rating (crop injury, 0 = no effect, 100 = complete kill) at 500 g/ha","[4]; post-emergence, Postemergence, 500 g ai/ha, scale 0 to 100",30%
same,"Corn plant response rating (crop injury, 0 = no effect, 100 = complete kill) at 125 g/ha","[4]; pre-emergence, Preemergence, 125 g ai/ha, scale 0 to 100 (0 no effect, 100 complete control)",0%
same,plant injury at 500 g/ha,"[4]; pre-emergence, Preemergence, 500 g ai/ha, scale 0 to 100 (0 no effect, 100 complete control), read-out: Corn plant response rating",0%
same,pest or weed control at 125 g/ha,"[5]; post-emergence, Postemergence, scale 0 to 100 (0 no effect, 100 complete control), read-out: Crabgrass plant response rating",60%
same,pest or weed control at 500 g/ha,"[5]; post-emergence, Postemergence, scale 0 to 100, read-out: Plant response rating, Crabgrass",80%
same,pest or weed control at 125 g/ha,"[5]; pre-emergence, Preemergence, scale 0 to 100 (0 no effect, 100 complete control), read-out: Plant response rating, Crabgrass",60%
same,pest or weed control at 500 g/ha,"[5]; pre-emergence, Preemergence, scale 0 to 100 (0 no effect, 100 complete control), read-out: Crabgrass plant response rating",70%
same,pest or weed control at 125 g/ha,"[6]; post-emergence, Postemergence, scale 0 to 100 (0 no effect, 100 complete control), read-out: Foxtail, Giant plant response rating",50%
same,pest or weed control at 500 g/ha,"[6]; post-emergence, Postemergence, scale 0 to 100, read-out: Plant response rating, Foxtail, Giant",80%
same,pest or weed control at 125 g/ha,"[6]; pre-emergence, Preemergence, scale 0 to 100 (0 no effect, 100 complete control), read-out: Plant response rating, Foxtail, Giant",40%
same,pest or weed control at 500 g/ha,"[6]; pre-emergence, Preemergence, scale 0 to 100 (0 no effect, 100 complete control), read-out: Foxtail, Giant plant response rating",80%
same,pest or weed control at 125 g/ha,"[7]; post-emergence, Postemergence, scale 0 to 100 (0 no effect, 100 complete control), read-out: Lambsquarters plant response rating",90%
same,pest or weed control at 500 g/ha,"[7]; post-emergence, Postemergence, scale 0 to 100, read-out: Plant response rating, Lambsquarters",90%
same,pest or weed control at 125 g/ha,"[7]; pre-emergence, Preemergence, scale 0 to 100 (0 no effect, 100 complete control), read-out: Plant response rating, Lambsquarters",90%
same,pest or weed control at 500 g/ha,"[7]; pre-emergence, Preemergence, scale 0 to 100 (0 no effect, 100 complete control), read-out: Lambsquarters plant response rating",90%
same,pest or weed control at 125 g/ha,"[8]; post-emergence, Postemergence, scale 0 to 100 (0 no effect, 100 complete control), read-out: Morningglory plant response rating",90%
same,pest or weed control at 500 g/ha,"[8]; post-emergence, Postemergence, scale 0 to 100, read-out: Plant response rating, Morningglory",90%
same,pest or weed control at 125 g/ha,"[8]; pre-emergence, Preemergence, scale 0 to 100 (0 no effect, 100 complete control), read-out: Plant response rating, Morningglory",80%
same,pest or weed control at 500 g/ha,"[8]; pre-emergence, Preemergence, scale 0 to 100 (0 no effect, 100 complete control), read-out: Morningglory plant response rating",90%
same,pest or weed control at 125 g/ha,"[9]; post-emergence, Postemergence, scale 0 to 100 (0 no effect, 100 complete control), read-out: Pigweed plant response rating",90%
same,pest or weed control at 500 g/ha,"[9]; post-emergence, Postemergence, scale 0 to 100, read-out: Plant response rating, Pigweed",100%
same,pest or weed control at 125 g/ha,"[9]; pre-emergence, Preemergence, scale 0 to 100 (0 no effect, 100 complete control), read-out: Plant response rating, Pigweed",80%
same,pest or weed control at 500 g/ha,"[9]; pre-emergence, Preemergence, scale 0 to 100 (0 no effect, 100 complete control), read-out: Pigweed plant response rating",90%
same,pest or weed control at 125 g/ha,"[10]; post-emergence, Postemergence, scale 0 to 100 (0 no effect, 100 complete control), read-out: Velvetleaf plant response rating",60%
same,pest or weed control at 500 g/ha,"[10]; post-emergence, Postemergence, scale 0 to 100, read-out: Plant response rating, Velvetleaf",70%
same,pest or weed control at 125 g/ha,"[10]; pre-emergence, Preemergence, scale 0 to 100 (0 no effect, 100 complete control), read-out: Plant response rating, Velvetleaf",70%
same,pest or weed control at 500 g/ha,"[10]; pre-emergence, Preemergence, scale 0 to 100 (0 no effect, 100 complete control), read-out: Velvetleaf plant response rating",80%
same,plant injury at 125 g/ha,"[11]; post-emergence, Postemergence, scale 0 to 100 (0 no effect, 100 complete control), read-out: Wheat plant response rating",20%
same,plant injury at 500 g/ha,"[11]; post-emergence, Postemergence, scale 0 to 100, read-out: Plant response rating, Wheat",30%
same,plant injury at 125 g/ha,"[11]; pre-emergence, Preemergence, scale 0 to 100 (0 no effect, 100 complete control), read-out: Plant response rating, Wheat",50%
same,plant injury at 500 g/ha,"[11]; pre-emergence, Preemergence, scale 0 to 100 (0 no effect, 100 complete control), read-out: Wheat plant response rating",60%
same,pest or weed control at 125 g/ha,"[12]; 125 g ai/ha, scale 0 to 100 (0 no effect, 100 complete control), read-out: Blackgrass plant response rating",10%
same,pest or weed control at 500 g/ha,"[12]; 500 g ai/ha, scale 0 to 100, read-out: Plant response rating, Blackgrass",60%
same,pest or weed control at 125 g/ha,"[13]; 125 g ai/ha, scale 0 to 100 (0 no effect, 100 complete control), read-out: Oat, Wild plant response rating",10%
same,pest or weed control at 500 g/ha,"[13]; 500 g ai/ha, scale 0 to 100, read-out: Plant response rating, Oat, Wild",20%
same,pest or weed control at 1000 g/ha,[14],30%
same,pest or weed control at 1000 g/ha,[15],40%
same,plant injury at 1000 g/ha,[16],30%
same,pest or weed control at 1000 g/ha,[17],40%
